Results taken from paper PMC6199744, “Development of Chemical Proteomics for the Folateome and Analysis of the Kinetoplastid Folateome” (ACS Infectious Diseases, 2018).
Where “and” joins values, the source holds several entries; their conditions need not be identical. Equal values may be shown once. Read-outs that look alike come from different tables or passages of the source.

System: L. major lysate proteins
Experiment: Multitargeted bead mixture chemoproteomics, single concentration competition, proteome-wide
Type: binding
Conditions: for fold change: vehicle control = 1

## NCCOCCOCC(=O)Nc1nc2ncc(CNc3ccc(C(=O)NC(CCC(=O)O)C(=O)O)cc3)nc2c(=O)[nH]1 (stereo not drawn) [compound 6]
  fold change vs vehicle control: 1.04 and 1.02
Bead mixture, L. major lysate
  protein inhibition, any captured protein (Figure 8): no protein inhibition >30%
Protein CLI00016468.1 KINETOPLASTID MEMBRANE PROTEIN-11
  fold change vs vehicle control: 0.79
Protein LINJ.03.0240 RIBOSOMAL PROTEIN L38, PUTATIVE
  fold change vs vehicle control: 1.35
Protein LINJ.11.0780 40S RIBOSOMAL PROTEIN S21, PUTATIVE
  fold change vs vehicle control: 1.03
Protein LINJ.11.0960 40S RIBOSOMAL PROTEIN S5
  fold change: 1.03
Protein LINJ.13.0990 PROTEASOME REGULATORY ATPASE SUBUNIT 2, PUTATIVE
  fold change vs vehicle control: 0.92
Protein LINJ.15.0330 RIBONUCLEOPROTEIN P18, MITOCHONDRIAL PRECURSOR, PUTATIVE
  fold change vs vehicle control: 0.98
Protein LINJ.19.0090 FIBRILLARIN, PUTATIVE
  fold change: 0.87
Protein LINJ.23.0860, 3-KETOACYL-COA THIOLASE, PUTATIVE
  fold change relative to vehicle control: 1.25
Protein LINJ.24.2300, 60S RIBOSOMAL PROTEIN L12, PUTATIVE
  fold change relative to vehicle control: 1
Protein LINJ.25.2230 SUCCINYL-COA […] SUBUNIT, PUTATIVE
  fold change vs vehicle control: 1.06
Protein LINJ.26.1630 40S RIBOSOMAL PROTEIN S33, PUTATIVE
  fold change vs vehicle control: 1.13
Protein LINJ.28.1100 RIBOSOMAL PROTEIN S20, PUTATIVE
  fold change vs vehicle control: 0.92
Protein LINJ.28.1940, REPLICATION FACTOR A, 51KDA SUBUNIT, PUTATIVE
  fold change relative to vehicle control: 0.96
Protein LINJ.28.2280 DYNEIN LIGHT CHAIN LC6, FLAGELLAR OUTER ARM, PUTATIVE
  fold change: 0.7
Protein LINJ.28.2870 PROTEIN PHOSPHATASE 4 CATALYTIC SUBUNIT, PUTATIVE
  fold change: 0.82
Protein LINJ.31.1600, […] OXIDASE VIII (COX VIII), PUTATIVE
  fold change relative to vehicle control: 0.8
Protein LINJ.33.1730, CYCLOPHILIN 4, PUTATIVE
  fold change relative to vehicle control: 1.42
Protein LINJ.34.0670 […]-ATP-ASE SUBUNIT 11, PUTATIVE,19S […]
  fold change vs vehicle control: 1.08
Protein LINJ.36.0780 PROTEIN KINASE, PUTATIVE,MITOGEN-ACTIVATED PROTEIN KINASE, PUTATIVE
  fold change vs vehicle control: 1.16
Protein LINJ.36.3960, BASIC TRA[…] 3A, PUTATIVE
  fold change relative to vehicle control: 1.37
Protein LINJ.36.4070 EUKARYOTIC TRANSLATION INITIATION FACTOR 3 SUBUNIT, PUTATIVE
  fold change vs vehicle control: 0.98
Protein LINJ.36.4080, HY[…], CONSERVED
  fold change relative to vehicle control: 1.12
Protein LINJ.36.4180 HS1VU COMPLEX P[…]-LIKE
  fold change: 1.02
Protein LINJ.[…] LONG-CHAIN-FATTY-ACID-COA LIGASE, PUTATIVE
  fold change vs vehicle control: 0.98
Protein LMJF.01.0570 TRIC[…], PUTATIVE
  fold change: 0.96
Protein LMJF.03.0200, DELTA-1-PYRROLINE-5-CARBOXYLATE DEHYDROGENASE, PUTATIVE
  fold change relative to vehicle control: 1.14
Protein LMJF.03.0230 LONG CHAIN FATTY ACYL COA SYNTHETASE, PUTATIVE
  fold change: 1
Protein LMJF.03.0980 ELONGATION INITIATION FACTOR 2 ALPHA SUBUNIT, PUTATIVE
  fold change: 0.99
Protein LMJF.04.0630 HY[…], CONSERVED
  fold change vs vehicle control: 1.04
Protein LMJF.04.1230 actin
  fold change vs vehicle control: 1.07
Protein LMJF.05.0100 PHOSPHOPROTEIN PHOSPHATASE, PUTATIVE
  fold change: 0.99
Protein LMJF.05.0280 PROTEIN TYROSINE PHOSPHATASE, PUTATIVE
  fold change: 0.92
Protein LMJF.05.0510 ATPASE ALPHA SUBUNIT
  fold change: 1.08
Protein LMJF.05.1040 STOMATIN-LIKE PROTEIN
  fold change: 0.97
Protein LMJF.06.0650 LANOSTEROL SYNTHASE, PUTATIVE
  fold change: 0.97
Protein LMJF.07.0700 TOPOISOMERASE-RELATED FUNCTION PROTEIN-LIKE PROTEIN
  fold change vs vehicle control: 0.83
Protein LMJF.07.1000 RNA BINDING PROTEIN-LIKE PROTEIN
  fold change: 0.9
Protein LMJF.07.1140, PEPTIDE […] REDUCTASE-LIKE
  fold change relative to vehicle control: 1.14
Protein LMJF.08.0510 RIBOSE-PHOSPHATE PYROPHOSPHOKINASE, PUTATIVE
  fold change: 0.97
Protein LMJF.08.0550 T[…]-LIKE PROTEIN
  fold change vs vehicle control: 1.05
Protein LMJF.08.1030, cathepsin L-like protease
  fold change relative to vehicle control: 0.94
Protein LMJF.08.1100 HY[…], CONSERVED
  fold change vs vehicle control: 1.01
Protein LMJF.09.1010 HYPOTHETICAL PROTEIN, CONSERVED
  fold change vs vehicle control: 0.88
Protein LMJF.09.1120, MIT[…] BINDING PROTEIN 2,MRP2, GBP25
  fold change relative to vehicle control: 1.13
Protein LMJF.09.1260 HYPOTHETICAL PROTEIN, CONSERVED
  fold change vs vehicle control: 0.98
Protein LMJF.10.0210 NUCLEOLAR PROTEIN, PUTATIVE
  fold change: 1.03
Protein LMJF.10.0310 PROTEIN TRANSPORT PROTEIN SEC23, PUTATIVE
  fold change vs vehicle control: 0.91
Protein LMJF.11.0590 3-[…]-COA C[…] SUBUNIT, PUTATIVE
  fold change: 0.92
Protein LMJF.11.0630, AMINOPEPTIDASE, PUTATIVE,METALLO-PEPTIDASE, CLAN MF, FAMILY M17
  fold change relative to vehicle control: 1.13
Protein LMJF.11.1050 PRETRA[…], ALPHA SUBUNIT, PUTATIVE,SEC61-LIKE (PRETRA[…]) PROTEIN, PUTATIVE
  fold change vs vehicle control: 1.04
Protein LMJF.11.1160 PROTEIN TRANSPORT PROTEIN SEC31, PUTATIVE
  fold change: 0.87
Protein LMJF.12.0030 PROTEASOME BETA-1 SUBUNIT, PUTATIVE
  fold change: 0.9
Protein LMJF.12.0210 […] […]1L8 3, PUTATIVE
  fold change vs vehicle control: 0.98
Protein LMJF.12.0530, GLUCOSE-6-PHOSPHATE ISOMERASE
  fold change relative to vehicle control: 1.41
Protein LMJF.12.0630 ALANINE AMINOTRANSFERASE
  fold change: 0.95
Protein LMJF.13.1230 40S RIBOSOMAL PROTEIN S4, PUTATIVE
  fold change vs vehicle control: 1.22
Protein LMJF.14.0310 PROTEASOME ALPHA 3 SUBUNIT, PUTATIVE
  fold change vs vehicle control: 0.96
Protein LMJF.14.0660 FATTY ACID ELONGASE, PUTATIVE
  fold change: 1.14
Protein LMJF.14.0670 FATTY ACID ELONGASE, PUTATIVE
  fold change: 0.98
Protein LMJF.14.0680 FATTY ACID ELONGASE, PUTATIVE
  fold change vs vehicle control: 1.13
Protein LMJF.14.0990 ADP/ATP MIT[…]-LIKE PROTEIN
  fold change: 1.32
Protein LMJF.14.1160 ENOLASE
  fold change vs vehicle control: 1.1
Protein LMJF.14.1440 HYPOTHETICAL PROTEIN, CONSERVED (cytoskeleton associated protein, putative)
  fold change: 0.82
Protein LMJF.15.0040 HYPOTHETICAL PROTEIN, CONSERVED (Possible lysine decarboxylase, putative)
  fold change: 0.84
